Test results reported in paper PMC12422966, “ACLY inhibition promotes tumour immunity and suppresses liver cancer” (Nature, 2025).

Biological target: T1, SLC27A2 (FATP2, ACSVL1) (Homo sapiens, UniProt O14975)
T1 construct: SLC27A2 (NM_003645, human tagged ORF clone) expressed in HEK293 cells
Assay: LC–MS/MS detection of EVT0185-CoA in HEK293 cells overexpressing SLC27A2, […] EVT0185
Assay type: cell-based

CC(C)(CCCCc1ccc(CCCCC(C)(C)C(=O)O)cc1)C(=O)O [EVT0185, 6-[4-(5-carboxy-5-methyl-hexyl)-phenyl]−2,2-dimethylhexanoic acid]
LC-MS/MS detection of EVT0185-CoA in HEK293 cells overexpressing SLC27A2, 30 μM: Incubation of HEK293 cells with EVT0185 followed by mass spectrometry analysis indicated that only cells expressing SLC27A2 generated the CoA thioester
